One data set concerns C. elegans germline. Description: Apoptosis in the C. elegans germline (apoptotic corpses per germline arm), after compound and/or RNAi treatment. The format is in vivo. The conditions noted are these: for increase in apoptotic corpses / % arms with >2 corpses / Corpses/germline arm, mean / Frequency: germline arms with 0 apoptotic corpses / Frequency: germline arms with 1 apoptotic corpse / Frequency: germline arms with 2 apoptotic corpses / Frequency: germline arms with 3 apoptotic corpses / Frequency: germline arms with 4 apoptotic corpses / Frequency: germline arms with >4 apoptotic corpses: 7B at 1.6 mM.

A further data set relates to HCT116 colon tumor. Conditions: HCT116 xenograft, 600 mg/kg orally once daily for ten doses, cited from earlier work.
[1] abbreviates: wild-type worms, 7B 0.3 mM and/or RNAi against RabGGT alpha subunit.

SMILES strings stand for the structures.

As for `N#Cc1ccc2c(c1)CN(S(=O)(=O)N1CCCCC1)[C@H](Cc1ccccc1)CN2Cc1cnc[nH]1` [Compound 7B], the “increase in apoptotic corpses” value in the data set on C. elegans germline (APAF-1/ced-4 mutants) was “no increase in corpses was observed”. In the data set with C. elegans germline (WT worms), the “% arms with >2 corpses” value is given as 100%; the “Corpses/germline arm, mean” value came out at 6.25; the “Frequency: germline arms with 0 apoptotic corpses” value is listed as 0; the “Frequency: germline arms with 1 apoptotic corpse” value was 0. Also, in the data set with C. elegans germline (WT worms), the “Frequency: germline arms with 2 apoptotic corpses” value was 0, the “Frequency: germline arms with 3 apoptotic corpses” value stood at 1, the “Frequency: germline arms with 4 apoptotic corpses” value is recorded as 0 and the “Frequency: germline arms with >4 apoptotic corpses” value was 10. The “increase in apoptotic corpses” value in the data set on C. elegans germline (caspase/ced-3 mutants) was “no increase in corpses was observed”. In addition, in the data set on C. elegans germline (ced3 mutant worms), the “% arms with >2 corpses” value was 0%; the “Corpses/germline arm, mean” value is recorded as 0.08; the “Frequency: germline arms with 0 apoptotic corpses” value was found to be 12; the “Frequency: germline arms with 1 apoptotic corpse” value was 1. In addition, in the data set on C. elegans germline (ced3 mutant worms), the “Frequency: germline arms with 2 apoptotic corpses” value is reported as 0, the “Frequency: germline arms with 3 apoptotic corpses” value was 0, the “Frequency: germline arms with 4 apoptotic corpses” value was 0 and the “Frequency: germline arms with >4 apoptotic corpses” value was determined as 0. In the data set on C. elegans germline (ced4 mutant worms), the “% arms with >2 corpses” value was 0%; the “Corpses/germline arm, mean” value came to 0.15; the “Frequency: germline arms with 0 apoptotic corpses” value was 11; the “Frequency: germline arms with 1 apoptotic corpse” value worked out at 2. In the data set with C. elegans germline (ced4 mutant worms), the “Frequency: germline arms with 2 apoptotic corpses” value was determined as 0, the “Frequency: germline arms with 3 apoptotic corpses” value is 0, the “Frequency: germline arms with 4 apoptotic corpses” value is given as 0 and the “Frequency: germline arms with >4 apoptotic corpses” value stood at 0. Moreover, the “observed number of apoptotic corpses per germline arm” value with C. elegans germline (wild-type adult worms, compound at 0.8 mM or higher) is on record as 5-7. Besides, in the data set with C. elegans germline (setting [1]), the “% arms with 0-2 corpses” value is 50%; the “% arms with 3-4 corpses” value came to 33%; the “% arms with >4 corpses” value was 17%; the “Corpses/arm, mean” value was found to be 2.3. In addition, in the data set on C. elegans germline (setting [1]), the “Frequency: arms with 0 apoptotic corpses” value came out at 5, the “Frequency: arms with 1 apoptotic corpse” value stood at 5, the “Frequency: arms with 2 apoptotic corpses” value stood at 2 and the “Frequency: arms with 3 apoptotic corpses” value worked out at 5. Moreover, in the data set with C. elegans germline (setting [1]), the “Frequency: arms with 4 apoptotic corpses” value turned out to be 3 and the “Frequency: arms with >4 apoptotic corpses” value came to 4.

Regarding `CCCS(=O)(=O)N1Cc2cc(C#N)ccc2N(Cc2cnc[nH]2)C[C@H]1Cc1ccccc1` [Compound 7H], the “death attributed to drug related toxicity (among eight mice treated)” value in the data set on HCT116 colon tumor is given as “one”. Further, the “mice that experienced cure of the tumor (among eight mice treated)” value in the data set with HCT116 colon tumor (cure = no mass larger than 35 mg) is “seven”.

Source of the values: patent US20040142888A1, “Modulators of RabGGT and methods of use thereof” (priority 2002, published 2004).
